Results on 26 compounds are retold here after patent publication US11053234B2 (GlaxoSmithKline Intellectual Property Development Limited, priority 2016, dated 2021).

For this test, the target named is T1, haematopoietic prostaglandin D synthase (H-PGDS) (Homo sapiens, UniProt O60760).
T1 construct: Full length human H-PGDS cDNA (Invitrogen Ultimate ORF 10H13026) was amplified by PCR; 6-His (N); TEV protease cleavage site (N); made in house; host or cells: E. coli BL21 (DE3*), vector pET22b+
T1 sequence (O60760 whole entry): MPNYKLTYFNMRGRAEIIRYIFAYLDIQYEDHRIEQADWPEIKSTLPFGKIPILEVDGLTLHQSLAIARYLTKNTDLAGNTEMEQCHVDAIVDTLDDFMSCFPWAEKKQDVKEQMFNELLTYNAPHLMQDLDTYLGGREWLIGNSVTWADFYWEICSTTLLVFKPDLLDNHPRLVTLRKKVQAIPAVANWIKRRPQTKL
As to the kind of experiment: H-PGDS RapidFire high throughput mass spectrometry assay (conversion of PGH2 to PGD2). Format: biochemical. To be noted: 10 nM H-PGDS, PGH2 formed in situ by COX-2 from arachidonic acid; read-out: Potency Range (mean pIC50) (converted). The procedure, abridged:
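PGH2 substrate generated in situ by COX-2 (full-length human, FLAG-tagged, Sf9-expressed) from arachidonic acid at ˜10 μM, then converted by full-length human His-tagged H-PGDS (E. coli-expressed). RapidFire SPE–triple quadrupole MS measured PGD2 against PGF2α as substrate surrogate to give percent conversion.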
For the compound `Cc1cnc(NC(=O)[C@H]2C[C@H](Oc3cccc4cccnc34)C2)s1` [Example 217, (trans)-N-(5-Methylthiazol-2-yl)-3-(quinolin-8-yloxy)cyclobutanecarboxamide], the IC50 was 10 to 79.4 nM.
`O=C(NC1CN(c2ncc(F)cn2)C1)N1CC(Oc2cccc3scnc23)C1` [Example 61, 3-(Benzo[d]thiazol-4-yloxy)-N-(1-(5-fluoropyrimidin-2-yl)azetidin-3-yl)azetidine-1-carboxamide]: the IC50 is 10 to 79.4 nM.
On to `CS(=O)(=O)c1ccc(NC(=O)[C@H]2C[C@H](Oc3cccc4scnc34)C2)c(F)c1` [Example 247, (trans)-3-(Benzo[d]thiazol-4-yloxy)-N-(2-fluoro-4-(methylsulfonyl)phenyl)cyclobutanecarboxamide], for which the IC50 was 10 to 79.4 nM.
The figure for `CC(C)(O)[C@H]1CC[C@H](NC(=O)[C@H]2C[C@H](Oc3cc(F)cc4cccnc34)C2)CC1` [Example 295, (trans)-3-((6-Fluoroquinolin-8-yl)oxy)-N-((trans)-4-(2-hydroxypropan-2-yl)cyclohexyl)cyclobutanecarboxamide] is 10 to 79.4 nM; for `O=C(NC1CN(c2ncccn2)C1)N1CC(Oc2cccc3scnc23)C1` [Example 107, 3-(Benzo[d]thiazol-4-yloxy)-N-(1-(pyrimidin-2-yl)azetidin-3-yl)azetidine-1-carboxamide] it is 10 to 79.4 nM.
On to `Cc1coc2c(O[C@H]3C[C@H](C(=O)N[C@H]4CC[C@H](C(C)(C)O)CC4)C3)cccc12` [Example 270, (trans)-N-((trans)-4-(2-Hydroxypropan-2-yl)cyclohexyl)-3-((3-methylbenzofuran-7-yl)oxy)cyclobutanecarboxamide], for which the IC50 is 100 to 1000 nM.
The figure for `CC(=O)N1CCCC(NC(=O)N2CC(Oc3cccc4scnc34)C2)C1` (racemic) [Example 92, Racemic N-(1-Acetylpiperidin-3-yl)-3-(benzo[d]thiazol-4-yloxy)azetidine-1-carboxamide] is 100 to 1000 nM.
Turning to `COc1ccc(F)cc1O[C@H]1C[C@H](C(=O)Nc2nc(C(C)=O)cs2)C1` [Example 163, (trans)-N-(4-Acetylthiazol-2-yl)-3-(5-fluoro-2-methoxyphenoxy)cyclobutanecarboxamide], the IC50 was 10 to 79.4 nM.
On to `Cc1nnc(NC(=O)N2CC(Oc3cccc4scnc34)C2)s1` [Example 321, 3-(Benzo[d]thiazol-4-yloxy)-N-(5-methyl-1,3,4-thiadiazol-2-yl)azetidine-1-carboxamide], for which the IC50 was 10 to 79.4 nM.
Then `O=C(Nc1nc(C2CC2)cs1)[C@H]1C[C@H](Oc2cccc3cccnc23)C1` [Example 207, (trans)-N-(4-Cyclopropylthiazol-2-yl)-3-(quinolin-8-yloxy)cyclobutanecarboxamide], with less than 10 nM.
Then `COc1ccc(F)cc1O[C@H]1C[C@H](C(=O)N[C@H]2CC[C@H](OC)CC2)C1` [Example 150, (trans)-3-(5-Fluoro-2-methoxyphenoxy)-N-((trans)-4-methoxycyclohexyl)cyclobutanecarboxamide], with 10 to 79.4 nM; and `CC(C)(O)c1csc(NC(=O)[C@H]2C[C@H](Oc3cccc4cccnc34)C2)n1` [Example 200, (trans)-N-(4-(2-Hydroxypropan-2-yl)thiazol-2-yl)-3-(quinolin-8-yloxy)cyclobutanecarboxamide], with 10 to 79.4 nM; and `Cc1cnc(N2CC(NC(=O)[C@H]3C[C@H](Oc4cccc5scnc45)C3)C2)nc1` [Example 39, (trans)-3-(Benzo[d]thiazol-4-yloxy)-N-(1-(5-methylpyrimidin-2-yl)azetidin-3-yl)cyclobutanecarboxamide], with 10 to 79.4 nM.
Regarding `O=C(Nc1nncs1)[C@H]1C[C@H](Oc2cccc3cccnc23)C1` [Example 216, (trans)-3-(Quinolin-8-yloxy)-N-(1,3,4-thiadiazol-2-yl)cyclobutanecarboxamide], the IC50 was 10 to 79.4 nM.
Turning to `CC(C)(C)c1nnc(NC(=O)[C@H]2C[C@H](Oc3cccc4cccnc34)C2)o1` [Example 179, (trans)-N-(5-(tert-Butyl)-1,3,4-oxadiazol-2-yl)-3-(quinolin-8-yloxy)cyclobutanecarboxamide], the IC50 was 10 to 79.4 nM.
With `C[C@]1(O)CC[C@H](NC(=O)[C@H]2C[C@H](Oc3cc(F)ccc3OC(F)F)C2)CC1` [Example 29, (trans)-3-(2-(Difluoromethoxy)-5-fluorophenoxy)-N-((trans)-4-hydroxy-4-methylcyclohexyl)cyclobutanecarboxamide], the IC50 is 10 to 79.4 nM.
In the case of `Cc1ccc(CNC(=O)[C@H]2C[C@H](Oc3cccc4scnc34)C2)o1` [Example 255, (trans)-3-(Benzo[d]thiazol-4-yloxy)-N-((5-methylfuran-2-yl)methyl)cyclobutanecarboxamide], the IC50 was 100 to 1000 nM.
Then `O=C(NCc1cccs1)[C@H]1C[C@H](Oc2cccc3scnc23)C1` [Example 250], with 100 to 1000 nM; and `CN(C)c1ccnc(N2CC(NC(=O)[C@H]3C[C@H](Oc4cccc5scnc45)C3)C2)n1` [Example 75, (trans)-3-(Benzo[d]thiazol-4-yloxy)-N-(1-(4-(dimethylamino)pyrimidin-2-yl)azetidin-3-yl)cyclobutanecarboxamide], with 10 to 79.4 nM.
The figure for `CC(C)(O)[C@H]1CC[C@H](NC(=O)[C@H]2C[C@H](Oc3cc(F)cc(F)c3)C2)CC1` [Example 283, (trans)-3-(3,5-Difluorophenoxy)-N-((trans)-4-(2-hydroxypropan-2-yl)cyclohexyl)cyclobutanecarboxamide] is 100 to 1000 nM; for `O=C(N[C@H]1CC[C@H](N2CC(F)(F)C2)CC1)[C@H]1C[C@H](Oc2cc(F)ccc2OC(F)F)C1` [Example 19, (trans)-N-((trans)-4-(3,3-Difluoroazetidin-1-yl)cyclohexyl)-3-(2-(difluoromethoxy)-5-fluorophenoxy)cyclobutanecarboxamide] it is 10 to 79.4 nM; for `CC(C)(O)C1CC2(CC(NC(=O)[C@H]3C[C@H](Oc4cccc5scnc45)C3)C2)C1` (mixture of isomers) [Example 83, Racemic (trans)-3-(Benzo[d]thiazol-4-yloxy)-N-(6-(2-hydroxypropan-2-yl)spiro[3.3]heptan-2-yl)cyclobutanecarboxamide] it is 10 to 79.4 nM.
The figure for `O=C(NC1CN(c2ccccn2)C1)[C@H]1C[C@H](Oc2cccc3scnc23)C1` [Example 81, (trans)-3-(Benzo[d]thiazol-4-yloxy)-N-(1-(pyridin-2-yl)azetidin-3-yl)cyclobutanecarboxamide] is 10 to 79.4 nM; for `O=C(NC1CCS(=O)(=O)C1)[C@H]1C[C@H](Oc2cccc3scnc23)C1` (mixture of isomers) [Example 254, Racemic (trans)-3-(Benzo[d]thiazol-4-yloxy)-N-(1,1-dioxidotetrahydrothiophen-3-yl)cyclobutanecarboxamide] it is 100 to 1000 nM.
Consider `CC(C)(O)[C@H]1CC[C@H](NC(=O)N2CC(Oc3cc(F)ccc3OC(F)F)C2)CC1` [Example 1, 3-(2-(Difluoromethoxy)-5-fluorophenoxy)-N-((trans)-4-(2-hydroxypropan-2-yl)cyclohexyl)azetidine-1-carboxamide], for which the IC50 is 100 to 1000 nM.
Regarding `NC(=O)c1ccc(N2CC(NC(=O)[C@H]3C[C@H](Oc4cccc5scnc45)C3)C2)nc1` [Example 36, 6-(3-((trans)-3-(Benzo[d]thiazol-4-yloxy)cyclobutanecarboxamido)azetidin-1-yl)nicotinamide], the IC50 is 10 to 79.4 nM.
